We go through 6 compounds from the supplement of paper PMC11061612.

Assay [1] has as its system H-EMC-SS (Chondrosarcoma). As to the kind of experiment: Bliss excess, mean over the matrix (fraction); higher = more synergy. Summed up: (§1)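 Bliss excess equals the observed combination effect minus the expected value EA + EB − EA·EB, where EA and EB are the effects of each agent alone. Combination Emax is the second-highest inhibition within the matrix. Inhibition was scaled from CellTiter-Glo 2.0 luminescence, with 0 set by vehicle wells and 1 by blank wells, after 72 hours of two-drug dosing of cells plated in 1536-well plates.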

Assay [2] deals with KYSE-50 (Esophageal Squamous Cell Carcinoma). Described as above. The method in brief: as §1
The subject of the next assay is U-87-MG (Glioblastoma). Described as above. The method in brief: as §1
A further assay deals with GOTO (Neuroblastoma). The description is as above. The method in brief:
as §1

Assay [3] deals with KP-2 (Pancreatic Carcinoma). The assay is described as above. Summed up:
as §1

The subject of assay [4] is SNU-C1 (Colorectal Carcinoma). The description is as above. Summed up:
as §1

For a further assay, the system named is EW-3 (Ewing's Sarcoma). The description is as above. The method in brief: as §1
For assay [5], the system named is MFE-319 (Endometrial Carcinoma). The assay is described as above. The method in brief:
as §1

A further assay concerns EW-18 (Ewing's Sarcoma). The assay is described as above. The method in brief:
as §1

Assay [6] deals with SCC-3 (B-Cell Non-Hodgkin's Lymphoma). The assay is described as above. Summed up: as §1
Assay [7] has as its system NCI-N87 (Gastric Carcinoma). Described as above. Summed up: as §1
In assay [8] the test system is HC-1 (Other Blood Carcinomas). The assay is described as above. The method in brief: as §1
Assay [9] concerns NCI-H322M (Lung Adenocarcinoma). Described as above. Summed up:
as §1

A further assay relates to IMR-5 (Neuroblastoma). The assay can be described thus: combination Emax (second highest fraction inhibited in the dose matrix, 72 h); higher = more inhibition; extreme values may be limits of the assay. Summed up: as §1
The test system of assay [10] is HSC-2 (Oral Cavity Carcinoma). The description is as above. Summed up: as §1
Assay [11] concerns BV-173 (Chronic Myelogenous Leukemia). The description is as above. The method in brief: as §1
Assay [12] relates to OCUM-1 (Gastric Carcinoma). Described as above. Summed up:
as §1

The test system of assay [13] is LC4-1 (B-Lymphoblastic Leukemia). The description is as above. Summed up:
as §1

For a further assay, the system named is EW-13 (Ewing's Sarcoma). The description is as above. The method in brief: as §1
Assay [14] deals with DG-75 (Burkitt's Lymphoma). The description is as above. The method in brief: as §1

In the case of `CC(=O)c1c(C)c2cnc(Nc3ccc(N4CCNCC4)cn3)nc2n(C2CCCC2)c1=O` [Palbociclib] + Cn1cnc2c(F)c(Nc3ccc(Br)cc3Cl)c(C(=O)NOCCO)cc21 [Selumetinib] (first compound max 10 µM, 7x7, partner max 10 µM), the Bliss excess in assay [1] was 0.008; in assay [2], 0.0789; in the assay with U-87-MG (Glioblastoma) it was -0.0929; in the assay with GOTO (Neuroblastoma), 0.0623; in assay [3], -0.0153; in assay [4], 0.0288. Further, the Bliss excess in the assay with EW-3 (Ewing's Sarcoma) is 0.0301; in assay [5], 0.0042; in the assay on EW-18 (Ewing's Sarcoma), -0.0542; in assay [6] it was 0.0581; in assay [7], 0.0117; in assay [8], -0.0354. Moreover, the Bliss excess in [9] is 0.0515. Besides, the “combination Emax” value is 0.612 in the assay on IMR-5 (Neuroblastoma); 0.391 in [10]; 0.733 in assay [11]; 0.944 in [12]; 0.614 in assay [13]; 0.113 with EW-13 (Ewing's Sarcoma). Further, the “combination Emax” value in assay [14] amounted to 0.723.
With `CN(CCO)CC[C@H](CSc1ccccc1)Nc1ccc(S(=O)(=O)NC(=O)c2ccc(N3CCC([C@@H](O)c4ccccc4-c4ccc(Cl)cc4)CC3)cc2)cc1S(=O)(=O)C(F)(F)F` [AZD4320] + C=CCn1c(=O)c2cnc(Nc3ccc(N4CCN(C)CC4)cc3)nc2n1-c1cccc(C(C)(C)O)n1 [AZD1775] (first compound max 1 µM, partner max 1 µM), the Bliss excess was -0.0004 in assay [1]; -0.0682 in assay [2]; -0.0637 with U-87-MG (Glioblastoma); -0.0268 in the assay on GOTO (Neuroblastoma); 0.0889 in [3]; -0.0588 in assay [4]. Further, the Bliss excess in the assay with EW-3 (Ewing's Sarcoma) was 0.11; in [5], 0.0537; in the assay with EW-18 (Ewing's Sarcoma), 0.0349; in assay [6] it was 0.0329; in assay [7] it was 0.0086; in assay [8], 0.206. In assay [9], the Bliss excess is -0.0521. The “combination Emax” value in the assay with IMR-5 (Neuroblastoma) came out at 0.983; in assay [10], 0.639; in assay [11] it was 0.958; in assay [12], 0.87; in [13], 1; in the assay with EW-13 (Ewing's Sarcoma), 0.665. In addition, the “combination Emax” value in assay [14] was determined as 0.82.
On to `COc1nnc2ccc(N3CCC(c4ccc(OCCN5CCN(C)C(=O)[C@H]5C)cc4)CC3)nn12` [AZD5153] + C=CCn1c(=O)c2cnc(Nc3ccc(N4CCN(C)CC4)cc3)nc2n1-c1cccc(C(C)(C)O)n1 [AZD1775] (first compound max 1 µM, partner max 1 µM), for which the Bliss excess in assay [1] was -0.0488; in assay [2], 0.0211; in the assay with U-87-MG (Glioblastoma) it was -0.119; with GOTO (Neuroblastoma), -0.0756; in [3] it was -0.0288; in assay [4] it was -0.0563. The Bliss excess with EW-3 (Ewing's Sarcoma) is -0.122; in assay [5], -0.13; in the assay on EW-18 (Ewing's Sarcoma), -0.0163; in assay [6], -0.046; in assay [7] it was -0.0415; in assay [8] it was -0.078. For the same compound, the Bliss excess in assay [9] is -0.106. Also, the “combination Emax” value in the assay with IMR-5 (Neuroblastoma) came to 0.973; in assay [10] it was 0.679; in assay [11], 0.931; in assay [12], 0.511; in assay [13], 0.941; in the assay with EW-13 (Ewing's Sarcoma) it was 0.407. Further, the “combination Emax” value in [14] worked out at 0.905.
`Cn1cnc2c(F)c(Nc3ccc(Br)cc3Cl)c(C(=O)NOCCO)cc21` [Selumetinib] + CC(C)n1c(=O)n(C)c2cnc3cc(F)c(-c4ccc(OCCCN5CCCCC5)nc4)cc3c21 [AZD1390] (first compound max 10 µM, 7x7, partner max 0.3 µM): the Bliss excess in assay [1] is -0.0135; in assay [2] it was -0.0046; in the assay on U-87-MG (Glioblastoma), -0.027; with GOTO (Neuroblastoma), 0.0225; in [3], -0.008; in assay [4], -0.0001. Moreover, the Bliss excess is -0.0455 in the assay on EW-3 (Ewing's Sarcoma); -0.112 in assay [5]; -0.0359 in the assay with EW-18 (Ewing's Sarcoma); 0.0273 in assay [6]; -0.0279 in assay [7]; -0.0327 in assay [8]. Further, the Bliss excess in assay [9] is -0.0601. In addition, the “combination Emax” value is 0.173 with IMR-5 (Neuroblastoma); 0.248 in [10]; 0.621 in [11]; 0.951 in assay [12]; 0.158 in [13]; 0.0488 with EW-13 (Ewing's Sarcoma). In assay [14], the “combination Emax” value was determined as 0.277.
As to `NC1(C(=O)N[C@@H](CCO)c2ccc(Cl)cc2)CCN(c2ncnc3[nH]ccc23)CC1` [Capivasertib] + COc1nnc2ccc(N3CCC(c4ccc(OCCN5CCN(C)C(=O)[C@H]5C)cc4)CC3)nn12 [AZD5153] (first compound max 10 µM, 7x7, partner max 1 µM), the Bliss excess in [1] is 0.0011; in [2] it was -0.0054; in the assay with U-87-MG (Glioblastoma), 0.0526; in the assay with GOTO (Neuroblastoma), 0.032; in assay [3], 0.0358; in assay [4], -0.0147. The Bliss excess was 0.0429 in the assay with EW-3 (Ewing's Sarcoma); 0.0499 in [5]; 0.0119 in the assay on EW-18 (Ewing's Sarcoma); 0.0248 in assay [6]; -0.0314 in assay [7]; 0.0365 in [8]. Also, the Bliss excess in assay [9] is -0.0144. Moreover, the “combination Emax” value in the assay on IMR-5 (Neuroblastoma) came to 0.857; in [10] it was 0.874; in assay [11], 0.905; in assay [12] it was 0.596; in assay [13], 0.99; with EW-13 (Ewing's Sarcoma) it was 0.636. For the same compound, the “combination Emax” value in assay [14] was found to be 0.884.
Turning to `C[C@@H](c1ccc2nccn2c1)n1nnc2ncc(-c3cnn(C)c3)nc21` [Savolitinib] + Cc1c2c(nn1C)CSCc1cc(n(C)n1)CSc1cc(c3ccccc3c1)OCCCc1c(C(=O)O)n(C)c3c-2c(Cl)ccc13 [AZD5991] (first compound max 1 µM, 7x7, partner max 1 µM), the Bliss excess in assay [1] was -0.0081; in assay [2], -0.0382; in the assay on U-87-MG (Glioblastoma), -0.0347; in the assay on GOTO (Neuroblastoma) it was -0.0227; in assay [3] it was -0.0468; in [4] it was -0.0558. The Bliss excess in the assay on EW-3 (Ewing's Sarcoma) was -0.0011; in [5] it was -0.0751; in the assay with EW-18 (Ewing's Sarcoma), -0.0113; in [6] it was 0.0239; in [7], -0.0513; in assay [8], -0.0199. The Bliss excess in assay [9] was -0.0638. Also, the “combination Emax” value in the assay on IMR-5 (Neuroblastoma) was determined as 0.645; in assay [10] it was 0.711; in assay [11], 0.704; in [12] it was 0.257; in assay [13] it was 0.939; with EW-13 (Ewing's Sarcoma), 0.313. Also, the “combination Emax” value in [14] was determined as 0.11.
